Results reported in PubChem BioAssay AID588530 (Broad Institute, 2011).
Active and inactive are the calls of the source.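 Rule for the calls: active = Alamar Blue signal falls with dose, AC50 no more than twice the top valid dose; inconclusive = flat curve near half-strength inhibition, or poor fit; inactive = the rest.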

tested on: not listed separately; assay: growth inhibition of C. albicans isolate, confirmation, CaCi-17 isolate, Alamar Blue, cherry-pick retest (AID 588530); conditions: C. albicans CaCi-17 growth, Alamar Blue fluorescence, 48 h; at 26 µM (top of the series)

**Q.** With `Cc1ccc(C(=O)c2coc3c2C(=O)C(=O)c2ccccc2-3)cc1` as the compound, how does the activity change, negative = inhibition read?
**A.** The activity change, negative = inhibition was 7.03% (inactive).

**Q.** For `O=[N+]([O-])c1ccc(O)c(/C=N/Nc2ccc(Cl)nn2)c1`, which activity change, negative = inhibition is on record?
**A.** The activity change, negative = inhibition was -23.4% (inactive).

tested on: C. albicans CaCi-17 growth, Alamar Blue fluorescence, 48 h; assay: as above; conditions: not given

**Q.** For `CCCCC(=O)NC(c1ccco1)c1cc(Cl)c2cccnc2c1O` (centres undefined), which AC50 is on record?
**A.** Its AC50 is 24.9 µM.

**Q.** Which AC50 does the source give for `Oc1c(C(Nc2nc3ccccc3s2)c2ccco2)ccc2cccnc12` (centres undefined) here?
**A.** Its AC50 is 3.97 µM.

**Q.** With `Oc1c(CN2CCN(c3ccc(F)cc3)CC2)cc(Cl)c2cccnc12` as the compound, how does the AC50 read?
**A.** The AC50 was 7.42 µM.

**Q.** Which AC50 does the source give for `O=C(Oc1c(Cl)cc(Cl)c2cccnc12)c1ccco1` here?
**A.** Its AC50 is 1.71 µM.

**Q.** With `Oc1ccc(N=Nc2ccc3c(c2)OCCO3)c2cccnc12` as the compound, how does the AC50 read?
**A.** The AC50 was 10.8 µM.

**Q.** With `CCOC(=O)N1C(=O)C2(CCCCC2)N(c2ccc(C)cc2)C1=S` as the compound, how does the AC50 read?
**A.** The AC50 was 1.3 µM.

**Q.** With `CCCCC(=O)NC(c1ccc(N(CC)CC)cc1)c1ccc2cccnc2c1O` (centres undefined) as the compound, how does the AC50 read?
**A.** Its AC50 is 3.73 µM.

**Q.** For `COc1cccc(N=Nc2ccc3cccnc3c2O)c1`, which AC50 is on record?
**A.** Its AC50 is 5.37 µM.

**Q.** Which AC50 does the source give for `COc1ccc(C)cc1N=Nc1ccc(O)c2ncccc12` here?
**A.** Its AC50 is 2.99 µM.

**Q.** For `O=[N+]([O-])c1cc(CN2CCN(c3ccccc3)CC2)c(O)c2ncccc12`, which AC50 is on record?
**A.** The AC50 was 10.6 µM.

**Q.** Which AC50 does the source give for `COc1cccc(N=Nc2ccc(O)c3ncccc23)c1` here?
**A.** The AC50 was 3.91 µM.

**Q.** For `Oc1c(C(c2ccc(Cl)cc2)N2CCCC2)cc(Cl)c2cccnc12` (centres undefined), which AC50 is on record?
**A.** Its AC50 is 7.68 µM.

**Q.** With `O=C(N/N=C/c1cc2c3c(c1O)CCCN3CCC2)c1ccccc1O` as the compound, how does the AC50 read?
**A.** Its AC50 is 4.28 µM.

**Q.** Which AC50 does the source give for `O=C(N/N=C/c1c(O)ccc2ccccc12)c1cccc(C(F)(F)F)c1` here?
**A.** The AC50 was > 52 µM (inactive).

**Q.** For `CN1CCN(C(c2ccc(C(F)(F)F)cc2)c2cc(Cl)c3cccnc3c2O)CC1` (centres undefined), which AC50 is on record?
**A.** Its AC50 is 6.34 µM.

**Q.** Which AC50 does the source give for `C=CCNC(=S)N/N=C(\C)c1ccccn1` here?
**A.** Its AC50 is 8.96 µM.

**Q.** For `Cc1cc(NC(c2ccc(Cl)cc2)c2ccc3cccnc3c2O)no1` (centres undefined), which AC50 is on record?
**A.** The AC50 was 2.49 µM.

**Q.** For `CCCCCCC[n+]1ccc(-c2cc[n+](CCCCCCC)cc2)cc1`, which AC50 is on record?
**A.** The AC50 was 13.4 µM.

**Q.** With `C/C(=N\NC(=O)c1cc2ccccc2cc1O)c1ccccn1` as the compound, how does the AC50 read?
**A.** The AC50 was 5.02 µM.

**Q.** With `Oc1ccc(N=Nc2ccc3c(c2)OCCO3)c2ncccc12` as the compound, how does the AC50 read?
**A.** Its AC50 is > 52 µM (inactive).

**Q.** For `CCN1/C(=C/C=C/c2oc3ccc(-c4ccccc4)cc3[n+]2CC)Oc2ccc(-c3ccccc3)cc21`, which AC50 is on record?
**A.** The AC50 was 2.43 µM.

**Q.** For `CN1CCN(C(c2ccc(C(F)(F)F)cc2)c2ccc3cccnc3c2O)CC1` (centres undefined), which AC50 is on record?
**A.** The AC50 was 8.86 µM.

**Q.** For `CCOc1ccc(N=Nc2ccc(O)c3ncccc23)cc1`, which AC50 is on record?
**A.** The AC50 was 11.6 µM.

**Q.** For `O=Nc1c(-c2cccc([N+](=O)[O-])c2)nc2ncccn12`, which AC50 is on record?
**A.** The AC50 was 4.77 µM.

**Q.** With `C(C#CCCCCCCCCC[n+]1ccccc1)#CCCCCCCCCC[n+]1ccccc1` as the compound, how does the AC50 read?
**A.** The AC50 was 1.52 µM.

**Q.** For `O=C(Oc1c(Cl)cc(Cl)c2cccnc12)c1cccs1`, which AC50 is on record?
**A.** Its AC50 is 3.29 µM.

**Q.** For `CCN(CC)S(=O)(=O)c1cc(OC)ccc1N=Nc1ccc(O)c2ncccc12`, which AC50 is on record?
**A.** The AC50 was 15.3 µM.

**Q.** Which AC50 does the source give for `COc1cccc(/C=N/Nc2ncnc3scc(-c4ccccc4)c23)c1O` here?
**A.** The AC50 was 12.5 µM.

**Q.** For `Oc1c(C(Nc2nccs2)c2ccc(C(F)(F)F)cc2)ccc2cccnc12` (centres undefined), which AC50 is on record?
**A.** The AC50 was 4.11 µM.

**Q.** For `O=Cc1ccc(O)c2ncccc12`, which AC50 is on record?
**A.** The AC50 was 13.7 µM.

**Q.** With `Oc1c(CN2CCN(c3ccccc3)CC2)cc(Br)c2cccnc12` as the compound, how does the AC50 read?
**A.** Its AC50 is > 52 µM (inactive).

**Q.** Which AC50 does the source give for `O=c1ccc(N=Nc2ccccc2)ccc1O` here?
**A.** The AC50 was 4.73 µM.
